From a melting point compilation (Tetko et al.; mined from patent text by program, amines drawn as free bases though some values may be those of a salt)

Work on `O=C1Nc2ccccc2N(C(=O)N2CCOC(CCN3CCCCC3)C2)c2ncccc21` (centres undefined) yielded a melting point of 136 to 138 °C.
Work on `C(=C(c1ccccc1)c1ccccc1)c1ccc(N(c2ccccc2)c2ccc(N(c3ccccc3)c3ccccc3)cc2)cc1` yielded a melting point of 218 to 219 °C.
For `O=C1NC(=O)c2c(Sc3ccc(Cl)cc3)c(Sc3ccc(Cl)cc3)c(Sc3ccc(Cl)cc3)c(Br)c21`, the melting point was 164 to 169 °C.
Molecule `O=C1CCN(Cc2ccc(C(F)(F)F)cc2)CC1C(c1ccc(F)cc1)c1ccc(F)cc1` (centres undefined) has a melting point of 126 to 127 °C.
With `O=C(c1ccc(-c2ccccc2)cc1)N1Cc2cccn2Cc2ncccc21` the melting point was 171 to 172 °C.
`CCOC(=O)C(=CNc1ccn(-c2ccccc2)n1)C(=O)OCC` showed a melting point of 81 to 82 °C.
Work on `COc1ccc2c(c1)-c1c(cc(C)n1C[C@@H](C)O)C2` yielded a melting point of 110 °C.
Molecule `CCOC(=O)Cc1cccc(Cc2nc3cc(F)cc(F)c3s2)c1` has a melting point of 66 to 67 °C.
With `CCc1n[nH]c(-c2ccccc2)c1NC(=O)c1ccccc1` the melting point was 215 to 216 °C.
In the case of `O=c1[nH]nc(Cc2ccncc2)c2c1CCCC2`, the melting point is reported as 193 to 194 °C.
In the case of `N#CC(C#N)C(c1cccc2ccccc12)c1cccc2ccccc12`, the melting point is reported as 179 to 181 °C.
For `CC(=O)N[C@@H](C)COC1CCN(c2nc3ccc(OCC4CC4)cc3s2)CC1`, the melting point was 121 to 122 °C.
With `CC(=O)C1CCC2C3CC=C4CCCCC4(C)C3CCC12C` (centres undefined) the melting point was 207 to 209 °C.
`CC(C)(C)OC(=O)N1CCC(CCC(=O)N2CCC[C@@H](C(=O)O)C2)CC1` gave a melting point of 102 to 104 °C.
Molecule `O=C(O)CCCc1ccc(C(NS(=O)(=O)c2ccc(Cl)cc2)C2CCCCC2)cc1` (single isomer, unassigned; (+)) has a melting point of 165 to 166 °C.
`CCOC(=O)NNC(C)=S` gave a melting point of 54 to 57.5 °C.
Molecule `COc1cccc2sc(-c3ccc(C(C)(C)C)cc3)nc12` has a melting point of 90 to 91 °C.
Work on `COc1ccc(-c2cc(Cl)c3c(Cl)c(O)ccc3c2)cc1` yielded a melting point of 132 to 134 °C.
With `COC(C(=O)Nc1cc(Cl)cc(Cl)c1)C(=O)OC(C)(C)C` (centres undefined) the melting point was 130 to 132 °C.
`Cc1ccc2c3c(ccc2n1)OC[C@H](CN1CCN(c2cccc(C)c2C)CC1)O3` showed a melting point of 112 to 113 °C.
Work on `CC1(C)C(=O)Nc2cc3[nH]c(-c4cncnc4)nc3cc21` yielded a melting point of 310 to 312 °C.
Molecule `CC1=CC(C)(C)N2CCCc3c(O)ccc1c32` has a melting point of 125 to 126 °C.
Work on `Cc1nc(N2CCN(Cc3ccccc3)C2=O)sc1C(=O)NCc1cccc(F)c1` yielded a melting point of 169 to 171 °C.
For `O=C(Nc1ccc(C(=O)O)cc1)NN1CC=CCC1`, the melting point was over 240 °C.
Work on `COC(CNC1=Nc2ccccc2Nc2ccccc21)OC` yielded a melting point of 181 to 182 °C.
In the case of `O=C(Nc1ccc(Cl)cc1)C1=C(C(=O)Nc2cc(OC3CCCC3)c(Cl)cc2F)CCCC1`, the melting point is reported as 221 to 222 °C.
For `Cc1ccc(C=C2CCN(C(=O)c3nc4ccc(O)cc4[nH]3)CC2)cc1`, the melting point was 82 °C.
Molecule `Cn1cnc2cc(NC(=O)c3cc4cc(F)cnc4n3Cc3cccc(F)c3)ccc21` has a melting point of 266 to 268 °C.
In the case of `O=C(c1ccc(-c2cc[nH]n2)cc1)N1Cc2cccn2Cc2ccccc21`, the melting point is reported as 219 to 221 °C.
In the case of `C(=C\c1ncno1)/c1ccccc1`, the melting point is reported as 53 to 55 °C.
For `CN1C(=O)C2CCCN2Cc2ccccc21` (centres undefined), the melting point was 120 to 122 °C.
Molecule `COC(=O)c1cccc(NC(N)=S)c1` has a melting point of 171 to 172 °C.
`CN(C)C(=O)Cn1c(-c2ccc(Br)cc2)nc2cccnc21` gave a melting point of 224 to 225 °C.
Work on `CCC1(CC)OC(=O)c2cc([N+](=O)[O-])ccc21` yielded a melting point of 98.5 to 100 °C.
For `Cc1ccc(N2CCN(C(=O)NCCN(C)C)CC2)cc1`, the melting point was 85 to 88 °C.
Molecule `CCCCc1nn2c(C)cccc2c1Cc1ccc(Br)cc1` has a melting point of 54 °C.
Work on `O=c1oc2ccccc2c(O)c1CCOc1ccccc1` yielded a melting point of 157 to 159 °C.
Work on `CCCOc1cc([N+](=O)[O-])ccc1Cl` yielded a melting point of 52 to 53 °C.
Molecule `O=CC(Cc1ccccc1)N1C(=O)c2ccccc2C1=O` (centres undefined) has a melting point of 115 to 117 °C.
Work on `CC(=O)Nc1cccc(OC(Cn2ccnc2)c2ccc(Cl)cc2Cl)c1` (centres undefined) yielded a melting point of 108 to 112 °C.
For `Oc1ccc(-c2ccccn2)c(O)c1`, the melting point was 170 to 172 °C.
In the case of `CC(=O)Oc1ccc(C(C)=NOCCOc2ccc(CC3SC(=O)NC3=O)cc2)cc1` (centres undefined), the melting point is reported as 133 to 135 °C.
Work on `N#CCC1NC(=O)C(Cc2ccccc2)NC1=O` (centres undefined) yielded a melting point of 255 to 256 °C.
In the case of `Cc1cccc(NC(=O)Nc2c(-c3ccccc3Cl)c3cc(C)c(C)cc3n(C)c2=O)c1`, the melting point is reported as 210 to 211 °C.
For `Cc1onc(NS(=O)(=O)c2ccccc2)c1Br`, the melting point was 128 to 130 °C.
Work on `N#CN=C(N)c1cc2c(Oc3ccc(Cl)cc3)cncc2s1` yielded a melting point of 265 to 268 °C.
`CC(C)(C)NOC(=O)c1n[nH]c2c(=O)[nH]c3cc(Cl)ccc3c(=O)c12` showed a melting point of 258 °C.
For `CCOc1cc(OCCCc2cn(-c3ccc(C(F)(F)F)cn3)nc2OCc2ccccc2)ccc1CCC(=O)O`, the melting point was 106 to 107 °C.
`CCOc1cc2c3cc(OCC)c(OCC)cc3c3c(OC)ccc(OC)c3c2cc1OCC` showed a melting point of 157 to 158 °C.
With `CC(C)(C)OC(=O)c1nc(-c2ccccc2)[nH]c1C1CCCCC1` the melting point was 222 to 223 °C.
With `CCCC1=C(C(=O)OCC)C(c2cc(F)ccc2OC)c2c[nH]nc2N1` (centres undefined) the melting point was 164 to 167 °C.
For `O=C1N(Cc2nc3cc(F)ccc3[nH]2)c2ccccc2C12COc1cc3c(cc12)OCO3` (centres undefined), the melting point was 138 to 142 °C.
`CCCc1[nH]nc2c1C(=O)c1c(NC(N)=O)cccc1-2` gave a melting point of 187 to 189 °C.
Work on `COc1ccc(-c2csc(Nc3cccc(C)n3)n2)cc1OC` yielded a melting point of 264 to 266 °C.
For `c1cncc(Nc2nnc(Cc3ccncc3)c3ccccc23)c1`, the melting point was 137 to 139 °C.
For `Cc1ccc(S(=O)(=O)ON2C(=O)c3ccc(C(=O)Cl)cc3C2=O)cc1`, the melting point was 131 to 133 °C.
For `CCOc1ccc(-c2nc(-c3cc4c(c(C(=O)O)c3)OC(C)(C)C4)cs2)cc1OCC`, the melting point was 106 to 107 °C.
Molecule `Nc1ncnc2c1c(-c1cccc(Cl)c1)cn2-c1ccccc1` has a melting point of 173 to 175 °C.
`N#Cc1c2ccccc2c(C=O)c2ccccc12` gave a melting point of 270 to 275 °C.
`CCOC(=O)Cc1ccnc(-c2nn(C(C)(C)C)c(N)c2C#N)c1` gave a melting point of 141 to 143 °C.
Work on `CCOC(=O)/C=C/c1ccc(OC(C)C)cc1Oc1ncc(C(F)(F)F)cc1Cl` yielded a melting point of 84.5 to 85 °C.
With `O=C1Nc2ccccc2Cc2sccc21` the melting point was 225 to 236 °C.
`Cc1cc(C(=O)Nc2cccc(Oc3ccc4nc(NC(=O)CN(C)C)cn4n3)c2)n(C)n1` gave a melting point of 210 °C.
`CC(C)(C)OC(=O)CN1C(=O)SC(Cc2ccc(N3CCC(NCC(O)c4ccc(O)c(NS(C)(=O)=O)c4)CC3)cc2)C1=O` (centres undefined) showed a melting point of 130 to 132 °C.
`COc1cc2nc(C)nc(Cl)c2cc1OCCCN1CCOCC1` gave a melting point of 116 to 118 °C.
For `CC#CCOc1cc(Oc2ccc(F)c(C(F)(F)F)c2)ncn1`, the melting point was 90.1 °C.
`Nc1nc(F)cc(OCc2ccccc2)n1` showed a melting point of 96 to 98 °C.
Molecule `O=c1[nH]c(=O)n(C2CC(F)C(CO)O2)cc1C(I)=CI` (centres undefined) has a melting point of 112 °C.
In the case of `C=C(C)C(=O)OCCNc1nc(Cl)nc(Cl)n1`, the melting point is reported as 138 to 140 °C.
Work on `O=CCC1Cc2cc(F)c(F)cc2C1=O` (racemic) yielded a melting point of 78 to 81 °C.
With `COCC1OC(n2c(Cl)nc3cc(Cl)c(Cl)cc32)C(O)C1O` (centres undefined) the melting point was 104 to 105 °C.
In the case of `CCCc1cc(N2CCN(c3ccncc3)CC2)ccc1OCCCC(=O)O`, the melting point is reported as 207 to 209 °C.
`Oc1ccc2c(c1)C13CCN(CC4CCC4)C(C2)C1CCOC3` (centres undefined) gave a melting point of 197 to 198 °C.
With `Nc1ccc(Cl)cc1C(O)c1ccccc1OCc1ccccc1` (centres undefined) the melting point was 120 to 121 °C.
`CC(CS)C(=O)N(C)c1cncc(C(=O)O)c1` (centres undefined) gave a melting point of 190 to 192 °C.
With `CCO/C(=N/O)C1Cc2cc(C(=O)CC)c(O)c(Cl)c2O1` (centres undefined) the melting point was 146 to 147 °C.
`CC(C)(Cc1ccccc1)C(NC(=O)c1ccc(Cl)cc1)NC(=N[N+](=O)[O-])Nc1cccnc1` (centres undefined) showed a melting point of 205 to 207 °C.
Molecule `O=c1c(Br)c(OCc2ccccc2C(F)(F)F)ccn1Cc1ccccc1` has a melting point of 133 to 134 °C.
`CCCCCCCCC(CCC(=O)O)(CCC(=O)O)C(C)=O` showed a melting point of 69 to 71 °C.
With `COC(=O)C1=C(C)NC(C)=C(C(=O)OCC2CCCO2)C1c1cccc(C(F)(F)F)c1` (centres undefined) the melting point was 108 to 110 °C.
Molecule `CCOC(=O)c1nnc(Cc2ccccc2Cl)n1C` has a melting point of 87 to 88 °C.
Work on `CCCCCCCCCCCCCCCCC(CO)OC` (centres undefined) yielded a melting point of 36 to 38 °C.
For `O=c1c2ccc(Cl)cc2[nH]c2c(O)nn(Cc3ccoc3)c(=O)c12`, the melting point was over 250 °C.
For `CC(=O)Oc1ccc(-c2cnc(N)c(Cc3ccccc3)n2)cc1`, the melting point was 184 to 186 °C.
`COc1ccc(Sc2nc(-c3ccc(OC)cc3)c(-c3ccc(OC)cc3)[nH]2)cc1` showed a melting point of 148 °C.
With `O=C1NC(=O)C(Cc2ccc(OCCON=Cc3ccccc3)cc2)S1` (centres undefined) the melting point was 126 to 129 °C.
`CC(C)(C)C(=O)Nc1ccc(Cl)cc1` showed a melting point of 149 to 150 °C.
For `COc1ccc(N2CCNC2=O)cc1OC`, the melting point was 168 °C.
`CN(CC(=O)O)C(=O)CN1CCCC1=O` gave a melting point of 178 °C.
For `COc1cc2c(cc1Cl)CCN(C)C[C@H]2c1ccccc1`, the melting point was 91 to 92 °C.
For `COC(=O)c1ccc(C(F)(F)F)cc1NC(C)=O`, the melting point was 86 to 87 °C.
With `CCCCC[C@H](O)c1ccc(Br)cc1` the melting point was 70 to 71 °C.
`O=c1ccc(C(F)(F)F)cn1Cc1ccccc1NCCN1CCOCC1` showed a melting point of 101 to 103 °C.
`O=C(CCl)c1cccnn1` gave a melting point of 104 to 106 °C.
`CC(C)(C)OC(=O)N1CCN(CCO[Si](C)(C)C(C)(C)C)C1=O` showed a melting point of 35.5 to 45.5 °C.
Work on `CC(=O)C(C)c1ccc2c(c1)Cc1cccnc1O2` (centres undefined) yielded a melting point of 136 °C.
Work on `COC(=O)c1cc(C(=O)c2c(C)c(NC(=O)c3cccc(OC(C)=O)c3)c3ccccn23)ccc1N` yielded a melting point of 210 °C.
Work on `CCCCn1c(=O)c(C(=O)OCC)c(O)c2ccccc21` yielded a melting point of 147 to 148 °C.
`N#Cc1cc(Cl)c(NC(=O)C(F)(F)F)c(Cl)c1` gave a melting point of 134 to 136 °C.
Molecule `C1=C(/C=C/c2ccccc2)CCN(Cc2c[nH]c3ncccc23)C1` has a melting point of 210 to 212 °C.
`O=C(O)c1cnc2n(c1=O)CCc1ccc(O)cc1-2` gave a melting point of 326 to 327 °C.
In the case of `CC1(C)OC(=O)c2ccc(C(c3c(F)cc([N+](=O)[O-])cc3F)n3cncn3)cc21` (centres undefined), the melting point is reported as 163 to 164 °C.
For `O=C(O)c1ccc2c(c1)C=C(Cn1ccnc1)CO2`, the melting point was 258 to 259 °C.
`CCc1cccc(CC)c1NC(=O)CC1c2ccccc2Oc2ccccc21` gave a melting point of 228 to 230 °C.
